{"source": "patent US5711020A", "about": "(priority 1996, dated 1998)", "key": {"[1]": {"system": "purified dehalogenase"}, "[2]": {"assay": "not given", "remark": "listed apart in the source"}, "[3]": {"assay": "not given", "remark": "listed apart in the source"}, "[4]": {"system": "purified TNT-reducing agent"}, "[5]": {"system": "TNT reducing enzyme", "format": "biochemical"}, "[6]": {"system": "nitrilase", "format": "biochemical"}}, "note": "“And” between values parts separate entries of the source, which are not always exact repeats. Equal entries are not always repeated. Where two headings read alike, the source gives them in different places."}
{"compound": "BrCCBr", "note": "[1,2-Dibromoethane]", "values": [{"measurement": "Rate Constant k", "setting": "pH 7.2", "result": "7.13E-04", "unit": "min - 1"}, {"measurement": "Half life", "setting": "vechten pond sediment, pH 7.2", "result": 16.2, "unit": "h"}]}
{"compound": "ClC=C(Cl)Cl", "note": "[TCE, trichloroethene]", "values": [{"measurement": "Half-life", "setting": "[1]; 60 µM", "result": 3.33, "unit": "h"}]}
{"compound": "ClC(Cl)(Cl)Cl", "note": "[Carbontetrachloride]", "values": [{"measurement": "Half life", "setting": "breukelveen sediment, pH 7.6", "result": 10.0, "unit": "h"}, {"measurement": "Rate Constant k", "setting": "pH 7.6", "result": "1.16E-03", "unit": "min - 1"}]}
{"compound": "ClC(Cl)(Cl)C(Cl)(Cl)Cl", "note": "[HCA, hexachloroethane]", "values": [{"measurement": "Half-life", "setting": "[1]; 30 µM", "result": 3.33, "unit": "h"}, {"measurement": "Half life", "setting": "breukelveen sediment, pH 7.6", "result": 0.5, "unit": "h"}, {"measurement": "Half life", "setting": "dommel sediment, 0.0732 µM, pH 7.5", "result": 1.5, "unit": "h"}, {"measurement": "Half life", "setting": "loosdrechtse plassen sediment, 0.0732 µM, pH 7.7", "result": 9.5, "unit": "h"}, {"measurement": "Rate Constant k", "setting": "pH 7.2", "result": "2.33E-03", "unit": "min - 1"}, {"measurement": "Rate Constant k", "setting": "pH 7.5", "result": "7.62E-03", "unit": "min - 1"}, {"measurement": "Rate Constant k", "setting": "pH 7.6", "result": "2.47E-02", "unit": "min - 1"}, {"measurement": "Rate Constant k", "setting": "pH 7.7", "result": "1.22E-03", "unit": "min - 1"}, {"measurement": "Half life", "setting": "vechten pond sediment, pH 7.2", "result": 5.0, "unit": "h"}]}
{"compound": "Ic1ccccc1", "note": "[Iodobenzene]", "values": [{"measurement": "Rate Constant k", "setting": "pH 7.2", "result": "2.55E-05", "unit": "min - 1"}, {"measurement": "Half life", "setting": "vechten pond sediment, pH 7.2", "result": 453.0, "unit": "h"}]}
{"compound": "ClC(Cl)=C(Cl)Cl", "note": "[PCE, tetrachloroethene]", "values": [{"measurement": "Half-life", "setting": "[1]; 60 µM", "result": 3.33, "unit": "h"}, {"measurement": "Half-life", "setting": "[1]; 100 µM", "result": 10, "unit": "h"}, {"measurement": "Rate Constant k", "setting": "pH 7.2", "result": "4.05E-05", "unit": "min - 1"}, {"measurement": "Half life", "setting": "vechten pond sediment, pH 7.2", "result": 285.5, "unit": "h"}]}
{"compound": "ClC(Br)C(Cl)Br", "note": "(stereo not drawn) [1,2-Dibromo-1,2-dichloroethane]", "values": [{"measurement": "Rate Constant k", "setting": "pH 7.2", "result": "5.44E-03 min - 1 and 4.54E-03 min - 1"}]}
{"compound": "BrC(Br)=C(Br)Br", "note": "[PBE, tetrabromoethene]", "values": [{"measurement": "Half-life", "setting": "[1]; 30 µM", "result": 18.33, "unit": "h"}]}
{"compound": "O=[N+]([O-])c1ccccc1", "note": "[nitrobenzene]", "values": [{"measurement": "t1/2", "setting": "[2]; bar-h sediment", "result": 0.35, "unit": "h"}, {"measurement": "t1/2", "setting": "[2]; beaver dam sediment", "result": 2.37, "unit": "h"}, {"measurement": "t1/2", "setting": "[2]; hickory hill sediment", "result": 2.37, "unit": "h"}, {"measurement": "t1/2", "setting": "[2]; memorial park sediment", "result": 2, "unit": "h"}, {"measurement": "kcorr, calculated maximum rate assuming a 10% analytical method error", "setting": "[3]; pH 2.5", "result": "0.25 ± 0.025 10^4 m^-1"}, {"measurement": "kcorr, calculated maximum rate assuming a 10% analytical method error", "setting": "[3]; pH 3.85", "result": "0.12 ± 0.012 10^4 m^-1"}, {"measurement": "kcorr", "setting": "[3]; pH 5.3", "result": "4.6 ± 0.24 10^4 m^-1"}, {"measurement": "kobs, observed first-order disappearance rate constant and standard deviation", "setting": "[3]; pH 5.3", "result": "4.0 ± 0.21 10^-4 m^-1"}, {"measurement": "kcorr", "setting": "[3]; pH 7", "result": "4.2 ± 0.20 10^4 m^-1"}, {"measurement": "kobs, observed first-order disappearance rate constant and standard deviation", "setting": "[3]; pH 7", "result": "3.8 ± 0.18 10^-4 m^-1"}, {"measurement": "kcorr", "setting": "[3]; pH 7.75", "result": "8.5 ± 0.77 10^4 m^-1"}, {"measurement": "kobs, observed first-order disappearance rate constant and standard deviation", "setting": "[3]; pH 7.75", "result": "7.7 ± 0.70 10^-4 m^-1"}, {"measurement": "kcorr", "setting": "[3]; pH 9.15", "result": "9.3 ± 0.62 10^4 m^-1"}, {"measurement": "kobs, observed first-order disappearance rate constant and standard deviation", "setting": "[3]; pH 9.15", "result": "8.6 ± 0.57 10^-4 m^-1"}, {"measurement": "kcorr", "setting": "[3]; pH 10.55", "result": "7.8 ± 1.2 10^4 m^-1"}, {"measurement": "kobs, observed first-order disappearance rate constant and standard deviation", "setting": "[3]; pH 10.55", "result": "6.6 ± 1.0 10^-4 m^-1"}, {"measurement": "Half-life", "setting": "[4]", "result": 28, "unit": "h"}]}
{"compound": "chymotrypsin", "values": [{"measurement": "effect on TNT-reducing activity", "setting": "[5]", "result": "no inhibition"}, {"measurement": "effect on activity of the nitrilase", "setting": "[6]", "result": "inhibited"}]}
{"compound": "IC(I)=C(I)I", "note": "[Tetraiodoethene]", "values": [{"measurement": "Rate Constant k", "setting": "pH 7.2", "result": "9.22E-02", "unit": "min - 1"}, {"measurement": "Half life", "setting": "vechten pond sediment, pH 7.2", "result": 0.1, "unit": "h"}]}
{"compound": "trypsin", "values": [{"measurement": "effect on TNT-reducing activity", "setting": "[5]", "result": "no inhibition"}, {"measurement": "effect on activity of the nitrilase", "setting": "[6]", "result": "inhibited"}]}
